Columns and labels:
Assay type in all cases: functional, Homo sapiens
[1] = test system: HEL; assay: Antitumor activity against HEL cells xenografted in BALB/C mouse assessed as T/C value at 10 mg/kg, po qd for 14 days consecutively by caliper method relative to control; conditions: time 14 day
[2] = test system: HEL; assay: Induction of apoptosis in HEL cells assessed as apoptotic cells at 0.5 uM incubated for 48 hrs by annexin V-FITC/PI staining based flow cytometry (reference value: 4.23%)
[3] = test system: HEL; assay: Induction of apoptosis in HEL cells assessed as apoptotic cells at 0.1 uM incubated for 48 hrs by annexin V-FITC/PI staining based flow cytometry (reference value: 3.95%)

Which results are given for `O=C(CCCCCCC(=O)Nc1ccccc1)NO` [VORINOSTAT]?
T/C [1]: 88.3%; Activity [2]: 46.97%; Activity [3]: 15.83%

Reference: ChEMBL document CHEMBL5046291, “Evodiamine-Inspired Topoisomerase-Histone Deacetylase Dual Inhibitors: Novel Orally Active Antitumor Agents for Leukemia Therapy” (J Med Chem, 2022)
